Test results as given in patent US20250170130A1, “MODULATORS OF MYC FAMILY PROTO-ONCOGENE PROTEIN” (Nalo Therapeutics, priority 2022, published 2025).

Columns and labels:
[1] = biological target: T1, MycN (Homo sapiens, UniProt P04198); assay: Degradation of MycN protein in SK-N-BE(2) cells, JESS/Western blot of lysates; type: cell-based; conditions: SKNBE2, 24 h, SKNBE2 cells, 24 h; for Dmax at 0.5 µM: read-out: % Degradation of MycN (SKNBE2) 24 h, 0.5 μM; for Dmax at 1 µM: read-out: % Degradation of MycN (SKNBE2) 24 h, 1 μM; for Dmax at 3 µM: read-out: % Degradation of MycN (SKNBE2) 24 h, 3 μM; for Dmax at 6 µM: read-out: % Degradation of MycN (SKNBE2) 24 h, 6 μM
T1 construct: endogenous in cells; host or cells: SK-N-BE(2)
T1 sequence (P04198 1-464): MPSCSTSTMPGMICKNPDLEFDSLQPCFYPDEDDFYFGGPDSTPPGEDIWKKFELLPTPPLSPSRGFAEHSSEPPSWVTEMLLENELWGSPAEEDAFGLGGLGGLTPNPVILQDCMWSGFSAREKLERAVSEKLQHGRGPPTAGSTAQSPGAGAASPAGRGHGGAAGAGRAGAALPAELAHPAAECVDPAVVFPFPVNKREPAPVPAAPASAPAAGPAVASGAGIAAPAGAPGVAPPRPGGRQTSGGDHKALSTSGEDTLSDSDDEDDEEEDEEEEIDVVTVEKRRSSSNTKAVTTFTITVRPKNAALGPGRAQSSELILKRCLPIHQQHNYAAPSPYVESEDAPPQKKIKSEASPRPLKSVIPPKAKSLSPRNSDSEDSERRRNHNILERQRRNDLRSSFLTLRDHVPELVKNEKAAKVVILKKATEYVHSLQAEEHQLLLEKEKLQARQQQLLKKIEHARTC
Procedure: (§1) For L363 cells (suspension), 1E6 cells were plated into each well of a 6 well plate. For SK-N-BE(2) cells (adherent), 5E5 cells were plated into each well of a 6 well dish. Cells were cultured for 24 hrs then treated with exemplary compounds at 0.1, 0.5, 1.0, 3.0 and 6.0 mM final assay concentrations plus DMSO control. All compounds were diluted to 10 mM in DMSO. Cells were treated with the compound for 24 hrs, then for both cell types, media containing cells were removed from wells into a 15 ml centrifuge tube, and remaining adherent SK-N-BE(2) cells were also scraped from the wells into the appropriate tubes. Tubes were centrifuged, cells were washed with PBS then re-centrifuged to pellet cells. A RIPA buffer cocktail was added to the cells on ice for 5 mins. Cell lysates were clarified by centrifugation and stored at −80 degrees until required. BCA assay was performed on each lysate to determine the protein concentration.
(§2) Once an appropriate lysate concentration and antibody concentration was determined, samples were screened in the JESS technology (Protein Simple, San Jose, CA—https://www.proteinsimple.com/jess.html).
(§3) Target protein antibodies (n-myc and c-myc) were detected in the chemi-luminescence channel and loading controls (tubulin and GAPDH) were detected using a Near Infra Red (NIR) labeled secondary antibody.
For SK-N-EB2 adherent cells, 5E5 cells in 1.9 mls media were plated into 6 well dishes and incubated for 24 hrs. Exemplary compounds were added (100 ul, 1 in 20 dilution in media) to each well (final assay concentration 6, 3, 1 and […]) together with DMSO control wells and incubated for 24 hrs. Cells were scrapped off the plate, centrifuged, washed with PBS, centrifuged, then a RIPA buffer cocktail added to the cells (100 ul), centrifuged and stored at −80 for later analysis. For L363 suspension cells, 1E6 cells were plated into 24 well dishes (950 ul media) and incubated for 24 hrs. Exemplary compounds were added (50 ul, 1 in 20 dilution in media) to each well (final assay concentration 6, 3, 1 and […]) together with DMSO control wells and incubated for 24 hrs. Cells were aspirated into tubes, centrifuged, washed with PBS, centrifuged, then a RIPA buffer cocktail added to the cells (100 ul), centrifuged and stored at −80 for later analysis.
(§4) For Western blot, a BCA (total protein) assay was run on all samples, these were then run in batches of 5 compounds plus control (DMSO) on each Western blot run—n-myc and c-myc were run in separate experiments in the chemiluminescence channel. Both tubulin and GAPDH were run as loading controls in all lanes in the near infra red channel.

[2] = biological target: T2, MycC (Homo sapiens, UniProt P01106); assay: Degradation of MycC protein in L363 cells, JESS/Western blot of lysates; type: cell-based; conditions: L-363, 24 h, L-363 cells, 24 h; for Dmax at 0.5 µM: read-out: % Degradation of MycC (L-363) 24 h, 0.5 μM; for Dmax at 1 µM: read-out: % Degradation of MycC (L-363) 24 h, 1 μM; for Dmax at 3 µM: read-out: % Degradation of MycC (L-363) 24 h, 3 μM; for Dmax at 6 µM: read-out: % Degradation of MycC (L-363) 24 h, 6 μM
T2 construct: endogenous in cells; host or cells: L363
T2 sequence (P01106 whole entry): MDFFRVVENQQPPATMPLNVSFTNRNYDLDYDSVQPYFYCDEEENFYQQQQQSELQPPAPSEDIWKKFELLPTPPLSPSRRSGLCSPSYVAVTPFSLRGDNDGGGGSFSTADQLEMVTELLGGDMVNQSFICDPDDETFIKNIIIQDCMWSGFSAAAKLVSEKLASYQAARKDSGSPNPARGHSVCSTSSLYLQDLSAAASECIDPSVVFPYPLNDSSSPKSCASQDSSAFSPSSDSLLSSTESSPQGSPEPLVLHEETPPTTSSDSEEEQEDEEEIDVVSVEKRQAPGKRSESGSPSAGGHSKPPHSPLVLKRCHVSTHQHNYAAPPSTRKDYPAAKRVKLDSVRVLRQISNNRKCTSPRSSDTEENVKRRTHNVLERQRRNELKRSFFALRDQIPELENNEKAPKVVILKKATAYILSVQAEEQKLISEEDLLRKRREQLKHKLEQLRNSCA
Procedure: as §1, with “Cells were cultured for 24 hrs then treated with exemplary compounds at 0.1, 0.5, 1.0, 3.0 and 6.0 mM final assay concentrations plus DMSO control.” left out
as §2, §3
For SK-N-EB2 adherent cells, 5E5 cells in 1.9 mls media were plated into 6 well dishes and incubated for 24 hrs. […] Cells were scrapped off the plate, centrifuged, washed with PBS, centrifuged, then a RIPA buffer cocktail added to the cells (100 ul), centrifuged and stored at −80 for later analysis. For L363 suspension cells, 1E6 cells were plated into […] (950 ul media) and incubated for 24 hrs. […] Cells were aspirated into tubes, centrifuged, washed with PBS, centrifuged, then a RIPA buffer cocktail added to the cells (100 ul), centrifuged and stored at −80 for later analysis.
as §4

CN1C[C@@H]2CN(c3nccc(Nc4cc(C5CC5)[nH]n4)n3)C[C@@H]2C1 [Compound 15, 2-[rac-(3aR,6aS)-2-methyl-1,3,3a,4,6,6a-hexahydropyrrolo[3,4-c]pyrrol-5-yl]-N-(5-cyclopropyl-1H-pyrazol-3-yl)pyrimidin-4-amine]
Dmax at 0.5 µM [1]: 20 to 49%
Dmax at 1 µM [1]: 20 to 49%
Dmax at 3 µM [1]: 50 to 79%
Dmax at 6 µM [1]: 80 to 100%
Dmax at 0.5 µM [2]: < 20%
Dmax at 1 µM [2]: 20 to 49%
Dmax at 3 µM [2]: 20 to 49%
Dmax at 6 µM [2]: 20 to 49%

CNC[C@H]1CCCN(c2nccc(Nc3cc(C4CC4)[nH]n3)n2)C1 [Compound 16, N-(5-Cyclopropyl-1H-pyrazol-3-yl)-2-[(3R)-3-(methylaminomethyl)-1-piperidyl]pyrimidin-4-amine]
Dmax at 0.5 µM [1]: < 20%
Dmax at 1 µM [1]: 80 to 100%
Dmax at 3 µM [1]: 80 to 100%
Dmax at 6 µM [1]: 80 to 100%
Dmax at 0.5 µM [2]: < 20%
Dmax at 1 µM [2]: < 20%
Dmax at 3 µM [2]: < 20%
Dmax at 6 µM [2]: < 20%

CN(C)[C@@H]1CCN(c2nccc(Nc3cc(C4CC4)[nH]n3)n2)C1 [Compound 17, N-(5-cyclopropyl-1H-pyrazol-3-yl)-2-[(3R)-3-(dimethylamino)pyrrolidin-1-yl]pyrimidin-4-amine]
Dmax at 0.5 µM [1]: 20 to 49%
Dmax at 1 µM [1]: 20 to 49%
Dmax at 3 µM [1]: 50 to 79%
Dmax at 6 µM [1]: 80 to 100%
Dmax at 3 µM [2]: < 20%
Dmax at 6 µM [2]: 80 to 100%

c1cc(Nc2cc(C3CC3)[nH]n2)nc(N2C[C@H]3CNC[C@H]3C2)n1 [Compound 18, N-(5-Cyclopropyl-1H-pyrazol-3-yl)-2-[rac-(3aR,6aS)-2,3,3a,4,6,6a-hexahydro-1H-pyrolo[3,4-c]pyrrol-5-yl]pyrimidin-4-amine]
Dmax at 0.5 µM [1]: 20 to 49%
Dmax at 1 µM [1]: 50 to 79%
Dmax at 3 µM [1]: 80 to 100%
Dmax at 6 µM [1]: 80 to 100%
Dmax at 0.5 µM [2]: < 20%
Dmax at 1 µM [2]: < 20%
Dmax at 3 µM [2]: < 20%
Dmax at 6 µM [2]: 20 to 49%

CN[C@@H]1CCN(c2nccc(Nc3cc(C4CC4)[nH]n3)n2)C1 [Compound 19, N-(5-Cyclopropyl-1H-pyrazol-3-yl)-2-[(3R)-3-(methylamino)pyrrolidin-1-yl]pyrimidin-4-amine]
Dmax at 3 µM [1]: 20 to 49%
Dmax at 6 µM [1]: 20 to 49%
Dmax at 0.5 µM [2]: < 20%

CN(C)CCCNc1nccc(Nc2cc(C3CC3)[nH]n2)n1 [Compound 20, N4-(5-Cyclopropyl-1H-pyrazol-3-yl)-N2-[3-(dimethylamino)propyl]pyrimidine-2,4-diamine]
Dmax at 0.5 µM [1]: < 20%
Dmax at 1 µM [1]: < 20%
Dmax at 3 µM [1]: 20 to 49%
Dmax at 6 µM [1]: 50 to 79%
Dmax at 6 µM [2]: < 20%

CNC[C@@H]1CCN(c2nccc(Nc3cc(C4CC4)[nH]n3)n2)C1 [Compound 21, N-(5-Cyclopropyl-1H-pyrazol-3-yl)-2-[(3S)-3-(methylaminomethyl)pyrrolidin-1-yl]pyrimidin-4-amine]
Dmax at 0.5 µM [1]: 20 to 49%
Dmax at 1 µM [1]: < 20%
Dmax at 3 µM [1]: 20 to 49%
Dmax at 6 µM [1]: 20 to 49%
Dmax at 3 µM [2]: < 20%
Dmax at 6 µM [2]: 20 to 49%

CN(C)CC12CC(C1)N(c1nccc(Nc3cc(C4CC4)[nH]n3)n1)C2 [Compound 22, N-(5-Cyclopropyl-1H-pyrazol-3-yl)-2-[4-[(dimethylamino)methyl]-2-azabicyclo[2.1.1]hexan-2-yl]pyrimidin-4-amine]
Dmax at 0.5 µM [1]: < 20%
Dmax at 1 µM [1]: < 20%
Dmax at 3 µM [1]: 20 to 49%
Dmax at 6 µM [1]: 50 to 79%
Dmax at 3 µM [2]: < 20%
Dmax at 6 µM [2]: 80 to 100%

NC[C@H]1CCN(c2nccc(Nc3cc(C4CCCC4)[nH]n3)n2)C1 [Compound 23, 2-[(3R)-3-(aminomethyl)pyrrolidin-1-yl]-N-(5-cyclopentyl-1H-pyrazol-3-yl)pyrimidin-4-amine]
Dmax at 0.5 µM [1]: 20 to 49%
Dmax at 1 µM [1]: 50 to 79%
Dmax at 3 µM [1]: 80 to 100%
Dmax at 6 µM [1]: 80 to 100%
Dmax at 3 µM [2]: 80 to 100%
Dmax at 6 µM [2]: 80 to 100%

NC[C@@H]1CCCN(c2nccc(Nc3cc(C4CC4)[nH]n3)n2)C1 [Compound 24, 2-[(3S)-3-(aminomethyl)-1-piperidyl]-N-(5-cyclopropyl-1H-pyrazol-3-yl)pyrimidin-4-amine]
Dmax at 0.5 µM [1]: 20 to 49%
Dmax at 1 µM [1]: 50 to 79%
Dmax at 3 µM [1]: 80 to 100%
Dmax at 6 µM [1]: 80 to 100%
Dmax at 0.5 µM [2]: < 20%
Dmax at 3 µM [2]: 80 to 100%
Dmax at 6 µM [2]: 80 to 100%

c1cc(Nc2cc(C3CC3)[nH]n2)nc(N2CC3(CCNC3)C2)n1 [Compound 25, N-(5-cyclopropyl-1H-pyrazol-3-yl)-2-(2,7-diazaspiro[3.4]octan-2-yl)pyrimidin-4-amine]
Dmax at 0.5 µM [1]: 20 to 49%
Dmax at 1 µM [1]: 20 to 49%
Dmax at 3 µM [1]: 20 to 49%
Dmax at 6 µM [1]: 20 to 49%
Dmax at 0.5 µM [2]: < 20%
Dmax at 1 µM [2]: < 20%

CN1CCC2(C1)CN(c1nccc(Nc3cc(C4CC4)[nH]n3)n1)C2 [Compound 26, N-(5-cyclopropyl-1H-pyrazol-3-yl)-2-(7-methyl-2,7-diazaspiro[3.4]octan-2-yl)pyrimidin-4-amine]
Dmax at 0.5 µM [1]: 20 to 49%
Dmax at 1 µM [1]: 20 to 49%
Dmax at 3 µM [1]: 20 to 49%
Dmax at 6 µM [1]: 50 to 79%
Dmax at 0.5 µM [2]: 20 to 49%
Dmax at 1 µM [2]: 20 to 49%
Dmax at 3 µM [2]: < 20%

CN1CC(C2CCN(c3nccc(Nc4cc(C5CCCC5)[nH]n4)n3)C2)C1 (stereo not drawn) [Compound 27, N-(5-cyclopentyl-1H-pyrazol-3-yl)-2-[3-(1-methylazetidin-3-yl)pyrrolidin-1-yl]pyrimidin-4-amine]
Dmax at 0.5 µM [1]: 20 to 49%
Dmax at 1 µM [1]: 20 to 49%
Dmax at 3 µM [1]: 50 to 79%
Dmax at 6 µM [1]: 80 to 100%
Dmax at 0.5 µM [2]: < 20%
Dmax at 1 µM [2]: 20 to 49%
Dmax at 3 µM [2]: < 20%
Dmax at 6 µM [2]: 20 to 49%

c1cc(Nc2cc(C3CCCC3)[nH]n2)nc(N2CCC(C3CNC3)C2)n1 (stereo not drawn) [Compound 28, 2-[3-(azetidin-3-yl)pyrrolidin-1-yl]-N-(5-cyclopentyl-1H-pyrazol-3-yl)pyrimidin-4-amine]
Dmax at 1 µM [1]: 80 to 100%
Dmax at 3 µM [1]: 80 to 100%
Dmax at 6 µM [1]: 80 to 100%
Dmax at 0.5 µM [2]: < 20%
Dmax at 1 µM [2]: < 20%
Dmax at 6 µM [2]: 50 to 79%
